The source of these data is patent US12492188B2, “1H-benzo[D]imidazole derivatives as TLR9 inhibitors for the treatment of fibrosis” (BRISTOL-MYERS SQUIBB COMPANY, priority 2020, dated 2025).

Read-outs that look alike come from different tables or passages of the source.

Common to all, as to type: cell-based
The target in one assay is T1, human TLR7 (Homo sapiens, UniProt Q9NYK1).
T1 construct: host or cells: HEK-Blue cells (HEK293-derived reporter line)
T1 sequence (Q9NYK1 27-1049): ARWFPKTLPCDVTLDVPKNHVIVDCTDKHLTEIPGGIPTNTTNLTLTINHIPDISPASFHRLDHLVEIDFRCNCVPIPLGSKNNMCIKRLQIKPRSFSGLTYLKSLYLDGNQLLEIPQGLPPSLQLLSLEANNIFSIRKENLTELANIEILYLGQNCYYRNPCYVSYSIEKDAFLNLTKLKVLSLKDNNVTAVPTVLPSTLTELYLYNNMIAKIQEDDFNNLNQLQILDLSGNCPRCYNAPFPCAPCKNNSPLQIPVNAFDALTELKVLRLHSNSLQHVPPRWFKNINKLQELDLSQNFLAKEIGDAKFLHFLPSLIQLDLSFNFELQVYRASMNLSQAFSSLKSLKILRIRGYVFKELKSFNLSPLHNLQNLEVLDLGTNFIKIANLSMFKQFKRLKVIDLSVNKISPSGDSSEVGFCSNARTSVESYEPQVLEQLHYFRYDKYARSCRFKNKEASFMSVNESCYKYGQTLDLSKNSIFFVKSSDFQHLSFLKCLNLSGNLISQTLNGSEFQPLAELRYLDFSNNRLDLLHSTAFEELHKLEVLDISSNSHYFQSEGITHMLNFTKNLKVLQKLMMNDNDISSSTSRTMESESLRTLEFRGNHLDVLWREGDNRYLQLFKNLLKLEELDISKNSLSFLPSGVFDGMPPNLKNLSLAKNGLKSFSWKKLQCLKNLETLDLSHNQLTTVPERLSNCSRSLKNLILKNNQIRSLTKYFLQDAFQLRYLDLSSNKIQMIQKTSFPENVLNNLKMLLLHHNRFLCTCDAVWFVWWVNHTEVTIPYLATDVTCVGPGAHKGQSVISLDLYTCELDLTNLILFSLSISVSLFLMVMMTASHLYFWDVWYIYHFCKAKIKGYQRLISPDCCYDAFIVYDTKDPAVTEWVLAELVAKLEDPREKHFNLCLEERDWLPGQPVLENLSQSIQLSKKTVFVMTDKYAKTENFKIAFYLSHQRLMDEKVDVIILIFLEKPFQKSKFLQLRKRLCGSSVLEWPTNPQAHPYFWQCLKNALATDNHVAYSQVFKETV
Nature of the assay: TLR7 inhibition reporter assay (HEK-Blue cells, secreted embryonic alkaline phosphatase reporter). Particulars: HEK-Blue cells overexpressing human TLR7, stimulated with gardiquimod 7.5 μM; read-out: TLR 7 IC50. Summed up:
(§1)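 HEK-Blue cells expressing human TLR7, TLR8 or TLR9 with an NF-κB/AP-1-driven SEAP reporter were pretreated with compound (0.05 nM–50 μM final) for 30 min at room temperature. Agonists were gardiquimod 7.5 μM for TLR7, R848 15.9 μM for TLR8 and ODN2006 5 nM for TLR9. SEAP was read after 22 h at 37 °C, and inhibition was calculated relative to agonist-plus-DMSO and known-inhibitor controls.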
(In general: In a reporter assay the amount or activity of a reporter protein is the signal.)

The target of a further assay is T2, human TLR9 (Homo sapiens, UniProt Q9NR96).
T2 construct: host or cells: HEK-Blue cells (HEK293-derived reporter line)
T2 sequence (Q9NR96 26-1032): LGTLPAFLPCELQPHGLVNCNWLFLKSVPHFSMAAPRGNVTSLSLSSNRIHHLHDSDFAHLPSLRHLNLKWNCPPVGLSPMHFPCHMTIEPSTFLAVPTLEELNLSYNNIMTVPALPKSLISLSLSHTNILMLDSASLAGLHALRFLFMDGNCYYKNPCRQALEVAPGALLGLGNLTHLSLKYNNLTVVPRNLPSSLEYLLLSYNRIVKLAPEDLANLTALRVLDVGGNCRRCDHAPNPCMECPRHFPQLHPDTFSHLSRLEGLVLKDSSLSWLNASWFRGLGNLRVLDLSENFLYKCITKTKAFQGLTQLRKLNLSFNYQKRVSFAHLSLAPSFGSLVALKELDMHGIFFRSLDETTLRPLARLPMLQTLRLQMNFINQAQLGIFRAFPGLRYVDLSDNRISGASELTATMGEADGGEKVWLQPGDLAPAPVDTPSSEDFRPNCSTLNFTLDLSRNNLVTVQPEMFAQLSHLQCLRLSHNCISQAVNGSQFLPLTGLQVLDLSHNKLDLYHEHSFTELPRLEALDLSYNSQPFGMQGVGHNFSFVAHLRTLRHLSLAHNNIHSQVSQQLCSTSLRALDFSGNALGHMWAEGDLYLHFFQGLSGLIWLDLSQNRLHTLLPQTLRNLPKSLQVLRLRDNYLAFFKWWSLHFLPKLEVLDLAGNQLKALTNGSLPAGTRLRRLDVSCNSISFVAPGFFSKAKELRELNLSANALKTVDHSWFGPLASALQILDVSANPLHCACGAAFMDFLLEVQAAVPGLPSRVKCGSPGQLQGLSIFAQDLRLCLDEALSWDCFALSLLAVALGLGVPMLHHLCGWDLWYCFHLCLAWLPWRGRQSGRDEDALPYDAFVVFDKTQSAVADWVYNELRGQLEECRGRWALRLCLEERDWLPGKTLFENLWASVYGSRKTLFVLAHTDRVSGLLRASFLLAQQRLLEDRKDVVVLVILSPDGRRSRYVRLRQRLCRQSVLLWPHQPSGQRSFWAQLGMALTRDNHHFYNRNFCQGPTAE
The experiment in a line: TLR9 inhibition reporter assay (HEK-Blue cells, secreted embryonic alkaline phosphatase reporter). Summed up:
as §1

The next assay addresses T3, human TLR8 (Homo sapiens, UniProt Q9NR97).
T3 construct: host or cells: HEK-Blue cells (HEK293-derived reporter line)
T3 sequence (Q9NR97 27-1041): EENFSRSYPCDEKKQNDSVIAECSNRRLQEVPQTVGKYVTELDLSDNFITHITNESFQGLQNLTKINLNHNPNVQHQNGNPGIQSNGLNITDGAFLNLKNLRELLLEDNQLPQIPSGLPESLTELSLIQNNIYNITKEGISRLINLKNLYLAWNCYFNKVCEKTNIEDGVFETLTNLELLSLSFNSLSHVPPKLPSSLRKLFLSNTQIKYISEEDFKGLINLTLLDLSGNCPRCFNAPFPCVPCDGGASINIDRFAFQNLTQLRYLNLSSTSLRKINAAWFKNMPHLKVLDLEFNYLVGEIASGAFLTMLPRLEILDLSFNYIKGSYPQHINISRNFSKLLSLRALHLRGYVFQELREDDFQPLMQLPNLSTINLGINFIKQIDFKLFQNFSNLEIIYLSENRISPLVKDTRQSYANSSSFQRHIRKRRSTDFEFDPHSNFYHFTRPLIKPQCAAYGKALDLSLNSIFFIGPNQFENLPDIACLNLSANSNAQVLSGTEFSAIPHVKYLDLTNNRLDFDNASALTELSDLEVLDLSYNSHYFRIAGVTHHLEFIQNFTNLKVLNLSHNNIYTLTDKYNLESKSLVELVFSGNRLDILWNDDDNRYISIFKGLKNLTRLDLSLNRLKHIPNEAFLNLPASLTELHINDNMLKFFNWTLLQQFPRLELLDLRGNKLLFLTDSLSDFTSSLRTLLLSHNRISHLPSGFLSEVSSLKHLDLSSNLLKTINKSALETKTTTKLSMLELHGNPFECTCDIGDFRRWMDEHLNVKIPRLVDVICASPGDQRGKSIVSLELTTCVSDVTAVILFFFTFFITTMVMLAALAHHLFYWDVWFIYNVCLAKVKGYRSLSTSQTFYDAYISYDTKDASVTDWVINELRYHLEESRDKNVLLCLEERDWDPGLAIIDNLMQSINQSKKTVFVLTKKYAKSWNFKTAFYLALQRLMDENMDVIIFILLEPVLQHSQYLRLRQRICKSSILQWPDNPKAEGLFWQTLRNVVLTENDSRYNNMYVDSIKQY
The experiment in a line: TLR8 inhibition reporter assay (HEK-Blue cells, secreted embryonic alkaline phosphatase reporter). Particulars: HEK-Blue cells overexpressing human TLR8, stimulated with R848 15.9 μM; read-out: TLR 8 IC50. The method in brief: as §1

Setting [1] is: HEK-Blue cells overexpressing human TLR9, stimulated with ODN2006 5 nM, read-out: TLR 9 IC50.
The mark [2] stands for this setting: HEK-Blue cells overexpressing human TLR9, stimulated with ODN2006 5 nM, 22 hour incubation, reporter readout.

For orientation: IC50 means the concentration needed to halve the response being measured. In the case of `Cn1c(-c2ccc(S(C)(=O)=O)cc2)nc2cc(C3CCN(C4CC5CCC(C4)N5C4CCC4)CC3)cc(F)c21` (single isomer, unassigned) [Example 216, 5-(1-(8-cyclobutyl-8-azabicyclo[3.2.1]octan-3-yl)piperidin-4-yl)-7-fluoro-1-methyl-2-(4-(methylsulfonyl)phenyl)-1H-benzo[d]imidazole], the IC50 was 23.2 µM on human TLR7, 0.27 µM against human TLR9, 0.269 µM on human TLR9 (setting [1]) and > 50 µM on human TLR8.

Turning to `COc1ccc(-c2nc3c(C)cc(C4CCN(C5CCNCC5)CC4)cc3[nH]2)cc1OC` [Example 13, 6-([1,4′-bipiperidin]-4-yl)-2-(3,4-dimethoxyphenyl)-4-methyl-1H-benzo[d]imidazole tris(2,2,2-trifluoroacetate)], the IC50 was > 50 µM at human TLR7, 0.62 µM at human TLR9 (setting [2]), 0.617 µM at human TLR9 (setting [1]) and > 50 µM at human TLR8.

Take `COc1ccc(-c2nc3c(C)cc(C4CCN(C5CC6(C5)CN(C(C)C)C6)CC4)cc3[nH]2)cc1OC` [Example 12, 2-(3,4-dimethoxyphenyl)-6-(1-(2-isopropyl-2-azaspiro[3.3]heptan-6-yl)piperidin-4-yl)-4-methyl-1H-benzo[d]imidazole]: the values for the IC50 at human TLR7, at human TLR9 (setting [2]) and on human TLR8 were 22 µM, 0.06 µM and > 50 µM, respectively.

As to `COCCN1C2CCC1CC(N1CCC(c3cc4c(cc3F)nc(-c3ccc(S(C)(=O)=O)cc3)n4C)CC1)C2` (single isomer, unassigned) [Example 238, 5-fluoro-6-(1-(8-(2-methoxyethyl)-8-azabicyclo[3.2.1]octan-3-yl)piperidin-4-yl)-1-methyl-2-(4-(methylsulfonyl)phenyl)-1H-benzo[d]imidazole], the IC50 is 34.6 µM at human TLR7, 0.058 µM against human TLR9, 0.058 µM at human TLR9 (setting [1]) and > 50 µM on human TLR8.

On to `Cn1c(-c2ccc(S(C)(=O)=O)cc2)nc2cc(F)c(C3CCN(C4CC5CCC(C4)N5C4CCOCC4)CC3)cc21` (centres unmarked) [Example 237, 5-fluoro-1-methyl-2-(4-(methylsulfonyl)phenyl)-6-(1-(8-(tetrahydro-2H-pyran-4-yl)-8-azabicyclo[3.2.1]octan-3-yl)piperidin-4-yl)-1H-benzo[d]imidazole], for which the IC50 is > 50 µM on human TLR7, 0.087 µM at human TLR9, 0.087 µM at human TLR9 (setting [1]) and > 50 µM at human TLR8.

As to `COc1ccc(-c2nc3cc(C4CCN(C5CCN(CC(C)C)CC5)CC4)ccc3n2C(C)C)cc1OC` [Example 36, 2-(3,4-dimethoxyphenyl)-5-(1′-isobutyl-[1,4′-bipiperidin]-4-yl)-1-isopropyl-1H-benzo[d]imidazole], the IC50 at human TLR7 is 6.6 µM; against human TLR9 (setting [2]), 0.36 µM; at human TLR9 (setting [1]), 0.357 µM; on human TLR8, 4.6 µM.

Consider `COc1ccc(-c2nc3c(C)cc(C4CCN(C5CCN(C6CC6)CC5)CC4)cc3n2C)cc1F` [Example 55, 6-(1′-cyclopropyl-[1,4′-bipiperidin]-4-yl)-2-(3-fluoro-4-methoxyphenyl)-1,4-dimethyl-1H-benzo[d]imidazole], for which the IC50 at human TLR7 is 9.3 µM; at human TLR9 (setting [2]), 0.14 µM; on human TLR9 (setting [1]) it was 0.14 µM; on human TLR8 it was > 50 µM.

As to `Cn1c(-c2ccc(S(C)(=O)=O)cc2)nc2c(F)cc(C3CCN(C4CCCN(C5COC5)CC4)CC3)cc21` (single isomer, unassigned) [Example 108, 4-fluoro-1-methyl-2-(4-(methylsulfonyl)phenyl)-6-(1-(1-(oxetan-3-yl)azepan-4-yl)piperidin-4-yl)-1H-benzo[d]imidazole], the IC50 on human TLR7 is 24 µM; on human TLR9 (setting [2]) it was 0.26 µM; on human TLR9 (setting [1]) it was 0.0258 µM; on human TLR8, > 50 µM.

For `COc1ccc(-c2nc3c(C)cc(C4CCN(C5CC6CCC(C5)N6CC(C)C)CC4)cc3n2C)cc1OC` (single isomer, unassigned) [Example 17, 2-(3,4-dimethoxyphenyl)-6-(1-(8-isobutyl-8-azabicyclo[3.2.1]octan-3-yl)piperidin-4-yl)-1,4-dimethyl-1H-benzo[d]imidazole], the IC50 on human TLR7 is 6.5 µM; against human TLR9 (setting [2]), 0.025 µM; on human TLR8, > 50 µM.

Consider `Cn1c(-c2ccc(S(C)(=O)=O)cc2)nc2ccc(C3CCN(C4CCCN(C5CCC5)CC4)CC3)c(F)c21` (centres unmarked) [Example 313, 6-(1-(1-cyclobutylazepan-4-yl)piperidin-4-yl)-7-fluoro-1-methyl-2-(4-(methylsulfonyl)phenyl)-1H-benzo[d]imidazole], for which the IC50 is > 50 µM on human TLR7, 0.069 µM at human TLR9 (setting [1]), 0.069 µM at human TLR9 (HEK-Blue human TLR9 reporter cells) and > 50 µM at human TLR8.
